Measured values as given in ChEMBL document CHEMBL4507293 (2021).

Legend:
[1] = system: Phosphatidylinositol 4,5-bisphosphate 3-kinase catalytic subunit alpha isoform (Homo sapiens), P42336 [I800L]; conditions: Compound concentration 100.0 nM
[2] = biological target: Cytoplasmic tyrosine-protein kinase BMX (Homo sapiens) (UniProt P51813); conditions: Compound concentration 100.0 nM
[3] = biological target: Phosphatidylinositol 4-kinase beta (Homo sapiens) (UniProt Q9UBF8); conditions: Compound concentration 100.0 nM
[4] = biological target: Dual specificity tyrosine-phosphorylation-regulated kinase 1B (Homo sapiens) (UniProt Q9Y463); conditions: Compound concentration 100.0 nM
[5] = system: Fibroblast growth factor receptor 3 (Homo sapiens), P22607 [G697C]; conditions: Compound concentration 100.0 nM
Chain of Fibroblast growth factor receptor 3 (Homo sapiens), P22607 [G697C] (P22607 whole entry G697C): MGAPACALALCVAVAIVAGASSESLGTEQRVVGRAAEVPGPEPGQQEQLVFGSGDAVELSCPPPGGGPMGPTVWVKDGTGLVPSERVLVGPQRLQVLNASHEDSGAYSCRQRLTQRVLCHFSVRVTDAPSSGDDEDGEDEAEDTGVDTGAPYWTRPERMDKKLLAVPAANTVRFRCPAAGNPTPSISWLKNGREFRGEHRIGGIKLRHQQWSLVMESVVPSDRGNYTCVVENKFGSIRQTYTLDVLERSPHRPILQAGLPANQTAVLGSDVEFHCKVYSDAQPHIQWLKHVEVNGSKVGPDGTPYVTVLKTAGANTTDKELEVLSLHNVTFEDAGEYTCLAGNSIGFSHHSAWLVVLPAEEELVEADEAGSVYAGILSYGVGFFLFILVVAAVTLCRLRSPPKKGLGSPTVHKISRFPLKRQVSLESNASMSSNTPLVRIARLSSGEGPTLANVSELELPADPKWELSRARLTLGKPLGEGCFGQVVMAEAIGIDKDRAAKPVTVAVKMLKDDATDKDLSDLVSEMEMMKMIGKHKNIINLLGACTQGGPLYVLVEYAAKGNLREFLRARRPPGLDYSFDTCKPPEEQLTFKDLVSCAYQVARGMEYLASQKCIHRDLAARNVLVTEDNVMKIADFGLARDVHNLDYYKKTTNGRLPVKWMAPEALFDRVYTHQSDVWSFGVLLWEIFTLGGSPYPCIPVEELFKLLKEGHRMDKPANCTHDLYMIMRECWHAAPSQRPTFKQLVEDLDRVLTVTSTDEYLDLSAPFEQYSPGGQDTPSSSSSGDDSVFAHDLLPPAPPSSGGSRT

[6] = biological target: Receptor-interacting serine/threonine-protein kinase 1 (Homo sapiens) (UniProt Q13546); conditions: Compound concentration 100.0 nM
[7] = biological target: Tyrosine-protein kinase FRK (Homo sapiens) (UniProt P42685); conditions: Compound concentration 100.0 nM
[8] = system: Tyrosine-protein kinase ABL1 (Homo sapiens), P00519 [H396P]; conditions: Compound concentration 100.0 nM
[9] = biological target: Ribosomal protein S6 kinase alpha-3 (Homo sapiens) (UniProt P51812); conditions: Compound concentration 100.0 nM
[10] = system: Epidermal growth factor receptor (Homo sapiens), P00533 [UNDEFINED MUTATION]; conditions: Compound concentration 100.0 nM
[11] = biological target: Wee1-like protein kinase 2 (Homo sapiens) (UniProt P0C1S8); conditions: Compound concentration 100.0 nM
[12] = biological target: Serine/threonine-protein kinase TBK1 (Homo sapiens) (UniProt Q9UHD2); conditions: Compound concentration 100.0 nM
Chain of Serine/threonine-protein kinase TBK1 (Homo sapiens) (Q9UHD2 whole entry): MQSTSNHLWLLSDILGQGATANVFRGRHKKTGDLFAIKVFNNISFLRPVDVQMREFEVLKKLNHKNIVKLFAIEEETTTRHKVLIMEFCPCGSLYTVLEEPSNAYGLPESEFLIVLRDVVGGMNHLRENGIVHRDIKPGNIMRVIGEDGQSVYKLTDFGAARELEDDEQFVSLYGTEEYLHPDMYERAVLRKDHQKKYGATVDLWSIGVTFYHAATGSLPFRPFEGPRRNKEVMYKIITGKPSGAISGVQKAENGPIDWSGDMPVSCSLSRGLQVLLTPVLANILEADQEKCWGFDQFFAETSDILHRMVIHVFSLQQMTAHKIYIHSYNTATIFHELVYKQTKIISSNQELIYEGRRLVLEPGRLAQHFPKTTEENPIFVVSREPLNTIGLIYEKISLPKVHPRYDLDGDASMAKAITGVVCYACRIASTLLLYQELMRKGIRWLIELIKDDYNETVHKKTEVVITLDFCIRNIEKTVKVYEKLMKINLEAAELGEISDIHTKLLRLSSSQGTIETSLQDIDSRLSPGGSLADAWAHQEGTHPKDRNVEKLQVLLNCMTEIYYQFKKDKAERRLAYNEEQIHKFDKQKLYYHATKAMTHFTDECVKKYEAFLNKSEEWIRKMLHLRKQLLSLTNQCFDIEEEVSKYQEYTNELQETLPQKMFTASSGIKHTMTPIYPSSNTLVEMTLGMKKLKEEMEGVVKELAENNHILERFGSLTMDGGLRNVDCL

[13] = biological target: Serine/threonine-protein kinase RIO1 (Homo sapiens) (UniProt Q9BRS2); conditions: Compound concentration 100.0 nM
[14] = biological target: Serine/threonine-protein kinase 38-like (Homo sapiens) (UniProt Q9Y2H1); conditions: Compound concentration 100.0 nM
[15] = biological target: 5-hydroxytryptamine receptor 2A (Homo sapiens) (UniProt P28223); conditions: Compound concentration 10.0 uM
[16] = biological target: Serine/threonine-protein kinase Nek7 (Homo sapiens) (UniProt Q8TDX7); conditions: Compound concentration 100.0 nM
[17] = biological target: Serine/threonine-protein kinase MRCK alpha (Homo sapiens) (UniProt Q5VT25); conditions: Compound concentration 100.0 nM
[18] = biological target: Histamine H3 receptor (Homo sapiens) (UniProt Q9Y5N1); conditions: Compound concentration 10.0 uM
[19] = biological target: LIM domain kinase 1 (Homo sapiens) (UniProt P53667); conditions: Compound concentration 100.0 nM
[20] = biological target: T1, 5-hydroxytryptamine receptor 1A (Homo sapiens) (UniProt P08908); conditions: Compound concentration 10.0 uM
T1 sequence (whole entry): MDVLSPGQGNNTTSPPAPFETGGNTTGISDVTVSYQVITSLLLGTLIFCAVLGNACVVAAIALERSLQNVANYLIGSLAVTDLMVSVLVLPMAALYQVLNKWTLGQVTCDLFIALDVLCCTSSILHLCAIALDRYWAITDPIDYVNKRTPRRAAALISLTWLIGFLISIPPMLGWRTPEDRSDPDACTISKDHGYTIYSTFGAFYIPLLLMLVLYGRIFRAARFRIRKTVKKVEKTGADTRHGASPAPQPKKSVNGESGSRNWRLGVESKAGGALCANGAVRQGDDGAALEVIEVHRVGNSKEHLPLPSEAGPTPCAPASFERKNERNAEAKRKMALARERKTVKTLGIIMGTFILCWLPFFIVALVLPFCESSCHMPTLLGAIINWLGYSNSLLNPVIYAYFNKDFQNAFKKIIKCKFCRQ

[21] = biological target: LIM domain kinase 2 (Homo sapiens) (UniProt P53671); conditions: Compound concentration 100.0 nM
[22] = biological target: T2, Alpha-2C adrenergic receptor (Homo sapiens) (UniProt P18825); conditions: Compound concentration 10.0 uM
T2 sequence (whole entry): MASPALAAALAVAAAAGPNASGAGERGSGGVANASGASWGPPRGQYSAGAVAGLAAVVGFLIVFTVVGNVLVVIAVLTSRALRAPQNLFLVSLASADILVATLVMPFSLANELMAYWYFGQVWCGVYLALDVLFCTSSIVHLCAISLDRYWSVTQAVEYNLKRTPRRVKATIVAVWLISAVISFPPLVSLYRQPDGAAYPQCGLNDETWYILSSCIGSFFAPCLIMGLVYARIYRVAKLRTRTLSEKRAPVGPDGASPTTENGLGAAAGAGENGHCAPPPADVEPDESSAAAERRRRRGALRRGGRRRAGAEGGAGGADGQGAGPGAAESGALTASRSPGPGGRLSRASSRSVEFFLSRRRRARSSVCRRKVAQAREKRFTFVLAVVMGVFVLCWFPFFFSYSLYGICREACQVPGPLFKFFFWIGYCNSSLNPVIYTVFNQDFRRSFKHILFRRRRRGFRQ

[23] = biological target: Myosin light chain kinase (Homo sapiens) (UniProt Q32MK0); conditions: Compound concentration 100.0 nM
[24] = biological target: Tyrosine-protein kinase ITK/TSK (Homo sapiens) (UniProt Q08881); conditions: Compound concentration 100.0 nM
Chain of Tyrosine-protein kinase ITK/TSK (Homo sapiens) (Q08881 whole entry): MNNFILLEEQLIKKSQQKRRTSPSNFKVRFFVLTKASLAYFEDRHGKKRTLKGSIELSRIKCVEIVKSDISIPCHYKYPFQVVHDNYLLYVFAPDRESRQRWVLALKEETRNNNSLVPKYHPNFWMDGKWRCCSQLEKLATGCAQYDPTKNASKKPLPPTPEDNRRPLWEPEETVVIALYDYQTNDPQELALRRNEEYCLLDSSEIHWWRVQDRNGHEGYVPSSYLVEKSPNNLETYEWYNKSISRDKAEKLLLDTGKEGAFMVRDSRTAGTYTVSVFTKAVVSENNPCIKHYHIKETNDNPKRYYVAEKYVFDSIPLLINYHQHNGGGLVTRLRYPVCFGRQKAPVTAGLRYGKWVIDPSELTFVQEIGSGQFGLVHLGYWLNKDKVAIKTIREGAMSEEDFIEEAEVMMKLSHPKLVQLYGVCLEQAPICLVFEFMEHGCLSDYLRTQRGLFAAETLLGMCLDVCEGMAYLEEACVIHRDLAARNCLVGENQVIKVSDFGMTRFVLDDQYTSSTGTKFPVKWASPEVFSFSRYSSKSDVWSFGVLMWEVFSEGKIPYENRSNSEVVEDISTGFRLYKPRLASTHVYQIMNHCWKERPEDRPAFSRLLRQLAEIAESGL

[25] = system: Hepatocyte growth factor receptor (Homo sapiens), P08581 [Y1235D]; conditions: Compound concentration 100.0 nM
[26] = biological target: Serine/threonine-protein kinase MARK1 (Homo sapiens) (UniProt Q9P0L2); conditions: Compound concentration 100.0 nM
[27] = biological target: Serine/threonine-protein kinase LATS1 (Homo sapiens) (UniProt O95835); conditions: Compound concentration 100.0 nM
[28] = biological target: Aurora kinase B (Homo sapiens) (UniProt Q96GD4); conditions: Compound concentration 100.0 nM
[29] = biological target: MAP kinase-interacting serine/threonine-protein kinase 2 (Homo sapiens) (UniProt Q9HBH9); conditions: Compound concentration 100.0 nM
[30] = biological target: Tyrosine-protein kinase Fgr (Homo sapiens) (UniProt P09769); conditions: Compound concentration 100.0 nM
[31] = biological target: NUAK family SNF1-like kinase 2 (Homo sapiens) (UniProt Q9H093); conditions: Compound concentration 100.0 nM
Chain of NUAK family SNF1-like kinase 2 (Homo sapiens) (Q9H093 whole entry): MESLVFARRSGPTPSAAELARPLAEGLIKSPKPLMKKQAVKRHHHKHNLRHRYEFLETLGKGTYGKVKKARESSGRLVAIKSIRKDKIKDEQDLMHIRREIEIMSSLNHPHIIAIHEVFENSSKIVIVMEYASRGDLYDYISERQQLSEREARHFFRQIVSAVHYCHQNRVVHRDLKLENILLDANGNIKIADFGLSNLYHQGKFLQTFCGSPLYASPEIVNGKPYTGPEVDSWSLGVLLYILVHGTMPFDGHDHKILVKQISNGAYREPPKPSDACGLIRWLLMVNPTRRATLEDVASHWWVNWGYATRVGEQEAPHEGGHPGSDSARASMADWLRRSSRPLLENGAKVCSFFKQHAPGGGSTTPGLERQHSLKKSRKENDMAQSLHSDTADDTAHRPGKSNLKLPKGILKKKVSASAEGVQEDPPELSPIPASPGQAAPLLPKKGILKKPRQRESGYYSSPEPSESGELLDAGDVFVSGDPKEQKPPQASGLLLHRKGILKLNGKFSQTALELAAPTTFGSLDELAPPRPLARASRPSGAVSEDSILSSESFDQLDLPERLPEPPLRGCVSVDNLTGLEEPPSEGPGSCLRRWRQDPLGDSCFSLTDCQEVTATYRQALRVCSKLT

[32] = system: Mast/stem cell growth factor receptor Kit (Homo sapiens), P10721 [D816H]; conditions: Compound concentration 100.0 nM
[33] = biological target: 1-phosphatidylinositol 3-phosphate 5-kinase (Homo sapiens) (UniProt Q9Y2I7); conditions: Compound concentration 100.0 nM
Chain of 1-phosphatidylinositol 3-phosphate 5-kinase (Homo sapiens) (Q9Y2I7 whole entry): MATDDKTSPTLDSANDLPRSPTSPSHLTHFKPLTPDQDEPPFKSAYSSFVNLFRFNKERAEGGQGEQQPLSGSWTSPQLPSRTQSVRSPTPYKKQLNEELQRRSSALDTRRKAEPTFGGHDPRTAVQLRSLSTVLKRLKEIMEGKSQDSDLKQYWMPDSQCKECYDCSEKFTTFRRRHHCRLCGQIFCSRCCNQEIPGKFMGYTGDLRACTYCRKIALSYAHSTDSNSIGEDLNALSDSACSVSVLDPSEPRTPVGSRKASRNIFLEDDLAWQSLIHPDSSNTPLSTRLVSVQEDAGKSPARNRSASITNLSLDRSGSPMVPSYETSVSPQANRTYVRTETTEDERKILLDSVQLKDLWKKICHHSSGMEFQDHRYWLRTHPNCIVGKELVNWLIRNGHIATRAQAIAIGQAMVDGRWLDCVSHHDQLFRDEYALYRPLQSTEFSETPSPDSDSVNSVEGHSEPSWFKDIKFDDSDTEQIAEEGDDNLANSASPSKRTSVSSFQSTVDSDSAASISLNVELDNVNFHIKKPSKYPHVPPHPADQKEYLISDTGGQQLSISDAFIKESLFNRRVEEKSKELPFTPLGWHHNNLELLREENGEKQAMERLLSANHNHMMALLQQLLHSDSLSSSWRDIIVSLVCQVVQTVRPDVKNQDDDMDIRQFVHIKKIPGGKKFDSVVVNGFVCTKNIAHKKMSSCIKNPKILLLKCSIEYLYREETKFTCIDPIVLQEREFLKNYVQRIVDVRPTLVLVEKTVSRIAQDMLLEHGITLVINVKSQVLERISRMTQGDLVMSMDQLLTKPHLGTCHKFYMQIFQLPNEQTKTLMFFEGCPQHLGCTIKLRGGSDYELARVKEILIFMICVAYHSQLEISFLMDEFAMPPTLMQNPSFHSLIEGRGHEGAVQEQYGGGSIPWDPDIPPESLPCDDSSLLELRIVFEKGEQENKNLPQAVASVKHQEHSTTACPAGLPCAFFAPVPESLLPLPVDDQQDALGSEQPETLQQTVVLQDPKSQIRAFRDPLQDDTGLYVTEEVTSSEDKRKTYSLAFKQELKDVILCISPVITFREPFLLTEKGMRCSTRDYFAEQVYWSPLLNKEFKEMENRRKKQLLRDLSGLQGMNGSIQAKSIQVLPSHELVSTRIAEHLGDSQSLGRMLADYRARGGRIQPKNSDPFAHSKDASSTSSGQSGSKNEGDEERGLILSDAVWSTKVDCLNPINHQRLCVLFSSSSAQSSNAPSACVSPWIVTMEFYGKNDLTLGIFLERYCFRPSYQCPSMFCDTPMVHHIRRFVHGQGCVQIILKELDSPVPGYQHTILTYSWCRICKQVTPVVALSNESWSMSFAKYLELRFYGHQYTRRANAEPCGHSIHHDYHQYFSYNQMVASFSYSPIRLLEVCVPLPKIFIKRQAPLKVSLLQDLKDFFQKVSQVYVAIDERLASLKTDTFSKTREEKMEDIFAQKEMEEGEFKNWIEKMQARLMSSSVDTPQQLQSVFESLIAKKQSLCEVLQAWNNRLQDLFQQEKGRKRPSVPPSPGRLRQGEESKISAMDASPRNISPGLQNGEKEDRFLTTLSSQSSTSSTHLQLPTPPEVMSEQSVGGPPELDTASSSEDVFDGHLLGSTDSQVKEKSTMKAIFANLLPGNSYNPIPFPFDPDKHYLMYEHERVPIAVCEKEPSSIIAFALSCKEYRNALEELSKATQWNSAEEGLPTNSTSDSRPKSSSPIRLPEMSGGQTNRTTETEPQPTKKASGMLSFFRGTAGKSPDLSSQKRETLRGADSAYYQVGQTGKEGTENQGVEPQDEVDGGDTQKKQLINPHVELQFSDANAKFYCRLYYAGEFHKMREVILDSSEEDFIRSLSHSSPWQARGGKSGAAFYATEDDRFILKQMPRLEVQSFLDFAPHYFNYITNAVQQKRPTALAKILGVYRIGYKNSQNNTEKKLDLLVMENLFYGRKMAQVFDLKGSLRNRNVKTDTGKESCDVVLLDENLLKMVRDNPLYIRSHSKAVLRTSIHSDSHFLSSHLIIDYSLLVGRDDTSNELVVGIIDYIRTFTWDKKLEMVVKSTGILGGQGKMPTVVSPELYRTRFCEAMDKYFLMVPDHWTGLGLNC

CC(C)CC(=O)N1CCc2nc(-c3ccc(Br)cc3)nc(N(C)Cc3ccccc3)c2C1 [THPP-1-NC]
inactive: residual activity [1] 98% | residual activity [2] 100% | residual activity [3] 100% | residual activity [4] 77% | residual activity [5] 100% | residual activity [6] 100% | residual activity [7] 100% | residual activity [8] 100% | residual activity [9] 67% | residual activity [10] 100% | residual activity [11] 100% | residual activity [12] 75% | residual activity [13] 98% | residual activity [14] 95% | inhibition [15] 3% | residual activity [16] 100% | residual activity [17] 100% | inhibition [18] 18.3% | residual activity [19] 100% | inhibition [20] -0.56% | residual activity [21] 100% | inhibition [22] 48% | residual activity [23] 98% | residual activity [24] 100% | residual activity [25] 100% | residual activity [26] 92% | residual activity [27] 67% | residual activity [28] 92% | residual activity [29] 73% | residual activity [30] 99% | residual activity [31] 100% | residual activity [32] 71% | residual activity [33] 91%

COCCOc1nc(-c2ccc(Cl)nc2)nc2c1CN(C(=O)c1ncn3ccccc13)CC2 [THPP-1]
inactive: residual activity [1] 66% | residual activity [2] 100% | residual activity [3] 100% | residual activity [4] 83% | residual activity [5] 100% | residual activity [6] 100% | residual activity [7] 100% | residual activity [8] 100% | residual activity [9] 82% | residual activity [10] 85% | residual activity [11] 100% | residual activity [12] 68% | residual activity [13] 93% | residual activity [14] 100% | inhibition [15] -1.4% | residual activity [16] 100% | residual activity [17] 100% | inhibition [18] 5.45% | residual activity [19] 100% | inhibition [20] -0.41% | residual activity [21] 100% | inhibition [22] 1.3% | residual activity [23] 83% | residual activity [24] 100% | residual activity [25] 100% | residual activity [26] 100% | residual activity [27] 70% | residual activity [28] 97% | residual activity [29] 100% | residual activity [30] 100% | residual activity [31] 100% | residual activity [32] 68% | residual activity [33] 90%
